molecular target: T1, human CB2R (Homo sapiens, UniProt P34972); assay: CB2R mediated modulation of cAMP synthesis; assay type: cell-based; conditions: found through the use of the above described assays (binding and cAMP); CHO cells expressing human CB2R, forskolin-stimulated cAMP
T1 construct: host or cells: CHO cells
Method in brief: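 EC50 values reflect inhibition of cAMP made in response to 10 uM forskolin (with 1 mM IBMX, 0.25% BSA) over 30 min at 37 °C in human CB2R-expressing CHO cells. The window runs from forskolin alone to 1 uM CP55940; curves fitted with a four-parameter logistic model.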

T1 sequence (P34972 whole entry): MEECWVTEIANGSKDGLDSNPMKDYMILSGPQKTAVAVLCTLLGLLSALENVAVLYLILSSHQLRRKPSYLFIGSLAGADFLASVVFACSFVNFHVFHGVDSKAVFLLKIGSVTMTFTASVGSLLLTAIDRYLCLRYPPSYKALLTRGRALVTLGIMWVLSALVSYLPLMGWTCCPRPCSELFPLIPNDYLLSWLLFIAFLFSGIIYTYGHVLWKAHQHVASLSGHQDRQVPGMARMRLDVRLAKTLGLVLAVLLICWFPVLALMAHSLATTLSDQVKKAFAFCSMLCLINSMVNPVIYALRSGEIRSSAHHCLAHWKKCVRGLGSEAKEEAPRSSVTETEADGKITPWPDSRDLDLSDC

Question: Which agonistic activity does the source give for CC(C)(C(=O)Nc1ccc(C(F)(F)F)cn1)S(=O)(=O)c1ccccc1F [2-(2-Fluoro-benzenesulfonyl)-2-methyl-N-(5-trifluoromethyl-pyridin-2-yl)-propionamide] here?
Answer: agonistic activity

Question: How did the agonistic activity turn out when Cn1nc(-c2cccs2)cc1NC(=O)C(C)(C)S(=O)(=O)c1ccc(Cl)cc1 [2-(4-Chloro-benzenesulfonyl)-2-methyl-N-(2-methyl-5-thiophen-2-yl-2H-pyrazol-3-yl)-propionamide] was run?
Answer: agonistic activity

Question: How did the agonistic activity turn out when Cn1nc(-c2ccccc2)cc1NC(=O)C1(S(=O)(=O)c2ccc(Cl)cc2)CC1 [1-(4-Chloro-benzenesulfonyl)-cyclopropanecarboxylic acid (2-methyl-5-phenyl-2H-pyrazol-3-yl)-amide] was run?
Answer: agonistic activity

Question: Cc1ccc(S(=O)(=O)C(C)(C)C(=O)Nc2nc(C(C)(C)C)cs2)cc1 [N-(4-tert-Butyl-thiazol-2-yl)-2-methyl-2-(toluene-4-sulfonyl)-propionamide] was tested. Which agonistic activity did it give?
Answer: agonistic activity

Question: For CC(C)c1ccc(S(=O)(=O)C(C)(C)C(=O)Nc2cc(C(C)(C)C)on2)cc1 [N-(5-tert-Butyl-isoxazol-3-yl)-2-(4-isopropyl-benzenesulfonyl)-2-methyl-propionamide], which agonistic activity is on record?
Answer: agonistic activity

Question: How did the agonistic activity turn out when COc1ccc(S(=O)(=O)C(C)(C)C(=O)Nc2nc(C(C)(C)C)cs2)cn1 [N-(4-tert-Butyl-thiazol-2-yl)-2-(6-methoxy-pyridine-3-sulfonyl)-2-methyl-propionamide] was run?
Answer: agonistic activity

Question: Cn1nc(C(C)(C)C)cc1NC(=O)C(C)(C)S(=O)(=O)c1ccc(S(C)(=O)=O)cc1 [N-(3-tert-butyl-1-methyl-1H-pyrazol-5-yl)-2-methyl-2-{[4-(methylsulfonyl)phenyl]sulfonyl}propanamide] was tested. Which agonistic activity did it give?
Answer: agonistic activity

Question: How did the agonistic activity turn out when CC(C)(C)c1cc(NC(=O)C(C)(C)S(=O)(=O)c2ccc(Cl)s2)no1 [N-(5-tert-Butyl-isoxazol-3-yl)-2-(5-chloro-thiophene-2-sulfonyl)-2-methyl-propionamide] was run?
Answer: agonistic activity

Question: With CC(C)(C)c1cc(NC(=O)C(C)(C)S(=O)(=O)c2ccc3nsnc3c2)no1 [2-(Benzo[1,2,5]thiadiazole-5-sulfonyl)-N-(5-tert-butyl-isoxazol-3-yl)-2-methyl-propionamide] as the compound, how does the agonistic activity read?
Answer: agonistic activity

Question: How did the agonistic activity turn out when Cc1nc(NC(=O)C(C)(C)S(=O)(=O)c2ccccc2)sc1C(C)(C)C [2-Benzenesulfonyl-N-(5-tert-butyl-4-methyl-thiazol-2-yl)-2-methyl-propionamide] was run?
Answer: agonistic activity

Question: CC(C)(C(=O)Nc1cccc2ccccc12)S(=O)(=O)c1ccc(Cl)cc1 [2-(4-Chloro-benzenesulfonyl)-2-methyl-N-naphthalen-1-yl-propionamide] was tested. Which agonistic activity did it give?
Answer: agonistic activity

Question: CC(C)(C)c1cc(NC(=O)C(C)(C)S(=O)(=O)c2ccc(F)cc2)on1 [N-(3-tert-Butyl-isoxazol-5-yl)-2-(4-fluoro-benzenesulfonyl)-2-methyl-propionamide] was tested. Which agonistic activity did it give?
Answer: agonistic activity

Question: Which agonistic activity does the source give for Cc1nc(NC(=O)C(C)(C)S(=O)(=O)c2cccc(F)c2)sc1C(C)(C)C [N-(5-tert-Butyl-4-methyl-thiazol-2-yl)-2-(3-fluoro-benzenesulfonyl)-2-methyl-propionamide] here?
Answer: agonistic activity

Question: For CC(C)(C)c1cc(NC(=O)C2(S(=O)(=O)c3ccc(Cl)cc3)CCC2)no1 [1-(4-Chloro-benzenesulfonyl)-cyclobutanecarboxylic acid (5-tert-butyl-isoxazol-3-yl)-amide], which agonistic activity is on record?
Answer: agonistic activity

Question: How did the agonistic activity turn out when CC(C)(C)c1csc(NC(=O)C(C)(C)S(=O)(=O)c2ccc(C#N)cc2F)n1 [N-(4-tert-Butyl-thiazol-2-yl)-2-(4-cyano-2-fluoro-benzenesulfonyl)-2-methyl-propionamide] was run?
Answer: agonistic activity

Question: Which agonistic activity does the source give for CC(C)(C(=O)Nc1ccc(C(F)(F)F)cn1)S(=O)(=O)c1ccc(C#N)cc1 [2-(4-Cyano-benzenesulfonyl)-2-methyl-N-(5-trifluoromethyl-pyridin-2-yl)-propionamide] here?
Answer: agonistic activity

Question: Which agonistic activity does the source give for Cn1nc(C(C)(C)C)cc1NC(=O)C(C)(C)S(=O)(=O)c1ccc(F)cc1F [N-(5-tert-Butyl-2-methyl-2H-pyrazol-3-yl)-2-(2,4-difluoro-benzenesulfonyl)-2-methyl-propionamide] here?
Answer: agonistic activity

Question: Which agonistic activity does the source give for CC(C)C(C(=O)Nc1nc(C(C)(C)C)cs1)S(=O)(=O)c1ccc(C(F)(F)F)cc1 (centres unmarked) [N-(4-tert-Butyl-thiazol-2-yl)-3-methyl-2-(4-trifluoromethyl-benzenesulfonyl)-butyramide] here?
Answer: agonistic activity

Question: With COc1ccc(S(=O)(=O)C(C)(C)C(=O)Nc2cc(-c3ccccc3)nn2C)cc1 [2-(4-Methoxy-benzenesulfonyl)-2-methyl-N-(2-methyl-5-phenyl-2H-pyrazol-3-yl)-propionamide] as the compound, how does the agonistic activity read?
Answer: agonistic activity

Question: COc1ccc(S(=O)(=O)C(C)(C)C(=O)Nc2nc(C(C)(C)C)cs2)cc1 [N-(4-tert-butyl-1,3-thiazol-2-yl)-2-[(4-methoxyphenyl)sulfonyl]-2-methylpropanamide] was tested. Which agonistic activity did it give?
Answer: agonistic activity

Question: How did the agonistic activity turn out when CC(C)C(C(=O)Nc1ccc(C(F)(F)F)cn1)S(=O)(=O)c1ccc(C(F)(F)F)cc1 (centres unmarked) [3-Methyl-2-(4-trifluoromethyl-benzenesulfonyl)-N-(5-trifluoromethyl-pyridin-2-yl)-butyramide] was run?
Answer: agonistic activity

Question: Which agonistic activity does the source give for CC(C)(C)c1cc(NC(=O)C(C)(C)S(=O)(=O)c2ccc(S(C)(=O)=O)cc2)no1 [N-(5-tert-Butyl-isoxazol-3-yl)-2-(4-methanesulfonyl-benzenesulfonyl)-2-methyl-propionamide] here?
Answer: agonistic activity

Question: Which agonistic activity does the source give for CC(C)(C(=O)Nc1nc(C(F)(F)F)cs1)S(=O)(=O)c1ccc(Cl)cc1 [2-(4-Chloro-benzenesulfonyl)-2-methyl-N-(4-trifluoromethyl-thiazol-2-yl)-propionamide] here?
Answer: agonistic activity

Question: How did the agonistic activity turn out when Cc1ccc(S(=O)(=O)C(C)(C)C(=O)Nc2cccc(C(F)(F)F)n2)cc1F [2-(3-Fluoro-4-methyl-benzenesulfonyl)-2-methyl-N-(6-trifluoromethyl-pyridin-2-yl)-propionamide] was run?
Answer: agonistic activity

Question: CC(C)(C)c1cc(NC(=O)C2(S(=O)(=O)c3ccc(C(F)(F)F)cc3)CC2)no1 [1-(4-Trifluoromethyl-benzenesulfonyl)-cyclopropanecarboxylic acid (5-tert-butyl-isoxazol-3-yl)-amide] was tested. Which agonistic activity did it give?
Answer: agonistic activity

Question: Which agonistic activity does the source give for COc1ccc(S(=O)(=O)C(C)(C)C(=O)Nc2cc(C(C)(C)C)nn2C)cn1 [N-(5-tert-Butyl-2-methyl-2H-pyrazol-3-yl)-2-(6-methoxy-pyridine-3-sulfonyl)-2-methyl-propionamide] here?
Answer: agonistic activity

Question: Which agonistic activity does the source give for Cn1c(NC(=O)C(C)(C)S(=O)(=O)c2ccc(Cl)cc2)nc2ccccc21 [2-(4-Chloro-benzenesulfonyl)-2-methyl-N-(1-methyl-1H-benzoimidazol-2-yl)-propionamide] here?
Answer: agonistic activity

Question: Which agonistic activity does the source give for CC(C)(C)c1cc(NC(=O)C(C)(C)S(=O)(=O)c2cccc(F)c2)no1 [N-(5-tert-Butyl-isoxazol-3-yl)-2-(3-fluoro-benzenesulfonyl)-2-methyl-propionamide] here?
Answer: agonistic activity

Question: Which agonistic activity does the source give for Cc1cnc(NC(=O)C(C)(C)S(=O)(=O)c2ccc(C(F)(F)F)cc2)s1 [2-Methyl-N-(5-methyl-thiazol-2-yl)-2-(4-trifluoromethyl-benzenesulfonyl)-propionamide] here?
Answer: agonistic activity

Question: Which agonistic activity does the source give for CC(C)(C(=O)Nc1nc(C(F)(F)F)cs1)S(=O)(=O)c1ccc(Cl)cc1F [2-[(4-chloro-2-fluorophenyl)sulfonyl]-2-methyl-N-[4-(trifluoromethyl)-1,3-thiazol-2-yl]propanamide] here?
Answer: agonistic activity

Question: For CC(C)(C(=O)Nc1ccc(C(F)(F)F)cn1)S(=O)(=O)c1cc(F)ccc1F [2-(2,5-Difluoro-benzenesulfonyl)-2-methyl-N-(5-trifluoromethyl-pyridin-2-yl)-propionamide], which agonistic activity is on record?
Answer: agonistic activity

Question: CC(C)(C(=O)Nc1cc2ccccc2cn1)S(=O)(=O)c1ccc(Cl)cc1 [2-(4-Chloro-benzenesulfonyl)-N-isoquinolin-3-yl-2-methyl-propionamide] was tested. Which agonistic activity did it give?
Answer: agonistic activity

Question: CC(C)(C(=O)Nc1ncc(-c2ccc(F)c(F)c2)s1)S(=O)(=O)c1ccc(F)cc1 [N-[5-(3,4-Difluoro-phenyl)-thiazol-2-yl]-2-(4-fluoro-benzenesulfonyl)-2-methyl-propionamide] was tested. Which agonistic activity did it give?
Answer: agonistic activity

Question: Which agonistic activity does the source give for CC(C)(C(=O)Nc1nc(-c2ccc(Cl)cc2)cs1)S(=O)(=O)c1ccccc1 [2-Benzenesulfonyl-N-[4-(4-chloro-phenyl)-thiazol-2-yl]-2-methyl-propionamide] here?
Answer: agonistic activity

Question: For Cc1sc(NC(=O)C(C)(C)S(=O)(=O)c2ccc(Cl)cc2)nc1C(C)(C)C [N-(4-tert-Butyl-5-methyl-thiazol-2-yl)-2-(4-chloro-benzenesulfonyl)-2-methyl-propionamide], which agonistic activity is on record?
Answer: agonistic activity

Question: For Cc1ccc(S(=O)(=O)C(C)(C)C(=O)Nc2cc(C(C)(C)C)on2)cn1 [N-(5-tert-Butyl-isoxazol-3-yl)-2-methyl-2-(6-methyl-pyridine-3-sulfonyl)-propionamide], which agonistic activity is on record?
Answer: agonistic activity

Question: For CCc1c(C)noc1NC(=O)C(C)(C)S(=O)(=O)c1ccc(Cl)cc1 [2-(4-Chloro-benzenesulfonyl)-N-(4-ethyl-3-methyl-isoxazol-5-yl)-2-methyl-propionamide], which agonistic activity is on record?
Answer: agonistic activity

Question: Which agonistic activity does the source give for CC(C)(C)c1csc(NC(=O)C2(S(=O)(=O)c3ccc(Cl)cc3)CC2)n1 [1-(4-Chloro-benzenesulfonyl)-cyclopropanecarboxylic acid (4-tert-butyl-thiazol-2-yl)-amide] here?
Answer: agonistic activity

— patent US8299111B2, “Compounds which modulate the CB2 receptor” (Boehringer Ingelheim International GmbH, priority 2006, dated 2012)
